Measured values from the supplement of paper PMC11208160.

experiment: recombinant UMI read abundance after kanamycin selection (control-corrected) (log10(CPM+1)); higher = more efficient recombination; extreme values may be limits of the assay; sequences stand for … in AGTGCAGAGAAAATCGGCCAGTTTTCTCTGCCTGCAGTCCGCATGCCGTGGGACCCCTTGGGTTCTAACCTGTTGCCTAGATTTATGCAGCGGACTGCCTTTCTCCCAAAGTGATAAACCGG…AGGTTGGTTTCACT; site = the 11-nt donor
Outline: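 The measure is log10(CPM+1) for recombinant UMIs. These were PCR-amplified across the donor–target junction and sequenced after Escherichia coli carrying a donor and donor-binding-loop pair library and a target plasmid with T7-inducible IS621 bridge recombinase was plated on IPTG (0.07 mM) plus kanamycin or unselected. CPM were averaged over two replicates and scaled by control-derived factors.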
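For recombinant UMI read abundance after kanamycin selection (control-corrected) in this document: IS621 bridge recombinase in Escherichia coli cells against a fixed T5 target plasmid.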
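For recombinant barcode read abundance after kanamycin selection (control-corrected) in this document: IS621 recombinase and bridge RNA in Escherichia coli cells.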

Sequence | recombinant UMI read abundance (log10)
TTTGCAGCATGGACCGGTTTTCCCGGTAATCCGTATTTGCT (site TTTGCCGCTAG) | 0.0123
TTTGCAGCATGGACCGGTTTTCCCGGTAATCCGTATTTGCT (site TTTGCGGCTAG) | 0.00881
TTTGCAGCATGGACCGGTTTTCCCGGTAATCCGTATTTGCT (site TTTGCTGCTAG) | 0.00602
TTTGCGCCATGGACCGGTTTTCCCGGTAATCCGTATTTGCT (site TTTGCGACTAG) | 0.0112
TTTGCGCCATGGACCGGTTTTCCCGGTAATCCGTATTTGCT (site TTTGCGCCTAG) | 0.00475
TTTGCGCCATGGACCGGTTTTCCCGGTAATCCGTATTTGCT (site TTTGCGGCTAG) | 0
TTTGCGCCATGGACCGGTTTTCCCGGTAATCCGTATTTGCT (site TTTGCGTCTAG) | 0.0103
TTTGCGGCATGGACCGGTTTTCCCGGTAATCCGTATTTGCA (site TTTGCGGCTAG) | 0.0111
TTTGCGGCATGGACCGGTTTTCCCGGTAATCCGTATTTGCA (site TTTGCGGCTCG) | 0
TTTGCGGCATGGACCGGTTTTCCCGGTAATCCGTATTTGCA (site TTTGCGGCTGG) | 0
TTTGCGGCATGGACCGGTTTTCCCGGTAATCCGTATTTGCA (site TTTGCGGCTTG) | 0.222
TTTGCGTCATGGACCGGTTTTCCCGGTAATCCGTATTTGCT (site TTTGCGACTAG) | 0
TTTGCGTCATGGACCGGTTTTCCCGGTAATCCGTATTTGCT (site TTTGCGCCTAG) | 0.0115
TTTGCGTCATGGACCGGTTTTCCCGGTAATCCGTATTTGCT (site TTTGCGGCTAG) | 0.018
TTTGCGTCATGGACCGGTTTTCCCGGTAATCCGTATTTGCT (site TTTGCGTCTAG) | 0.251
TTTGCTGCATGGACCGGTTTTCCCGGTAATCCGTATTTGTG (site TTAGCTGCTCA) | 0.0128
TTTGCTGCATGGACCGGTTTTCCCGGTAATCCGTATTTGTG (site TTCGCTGCTCA) | 0.00352
TTTGCTGCATGGACCGGTTTTCCCGGTAATCCGTATTTGTG (site TTGGCTGCTCA) | 0.0177
TTTGCTGCATGGACCGGTTTTCCCGGTAATCCGTATTTGTG (site TTTGCTGCTCA) | 0.0238
TTTGGCCCATGGACCGGTTTTCCCGGTAATCCGTATTTGCC (site TTTGGCCCTGG) | 0
TTTGTGACATGGACCGGTTTTCCCGGTAATCCGTATTTGAG (site TTTGTGACTCT) | 0.0187
TTTGTGGCATGGACCGGTTTTCCCGGTAATCCGTATTTGCT (site TTTGAGGCTAG) | 0
TTTGTGGCATGGACCGGTTTTCCCGGTAATCCGTATTTGCT (site TTTGCGGCTAG) | 0.00488
TTTGTGGCATGGACCGGTTTTCCCGGTAATCCGTATTTGCT (site TTTGGGGCTAG) | 0.022
TTTGTGGCATGGACCGGTTTTCCCGGTAATCCGTATTTGCT (site TTTGTGGCTAG) | 0.113
TTTGTTCCATGGACCGGTTTTCCCGGTAATCCGTATTTGGT (site ATTGTTCCTAC) | 0.0334
TTTGTTCCATGGACCGGTTTTCCCGGTAATCCGTATTTGGT (site CTTGTTCCTAC) | 0.00622
TTTGTTCCATGGACCGGTTTTCCCGGTAATCCGTATTTGGT (site GTTGTTCCTAC) | 0.0225
TTTGTTCCATGGACCGGTTTTCCCGGTAATCCGTATTTGGT (site TTTGTTCCTAC) | 0.0215

experiment: recombinant barcode read abundance after kanamycin selection (control-corrected) (log10(CPM+1)); higher = more efficient recombination; sequences stand for … in AGTGCAGAGAAAATCGGCCAGTTTTCTCTGCCTGCAGTCCGCATGCCGT…AGATTTATGCAGCGGACTGCCTTTCTCCCAAAGTGATAAACCGGACAGTATCATGGACCGGTTTTCCCGGTAATCCGTATTTGCAAGGTTGGTTTCACT; site = the 11-nt target
Experimental: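 Pooled E. coli target-specificity screen for the IS621 bridge recombinase. Each library plasmid pairs an 11-nt target (CT core) with a bridge RNA whose target-binding loop (9-nt LTG + 4-nt RTG) is reprogrammed; the rest of the 177-nt WT IS621 bridge RNA scaffold is fixed. The plasmid is co-electroporated with a WT donor plasmid; recombinase is induced with 0.1 mM IPTG and recombinants are selected on kanamycin. Recombinant barcodes are sequenced, converted to CPM, averaged over two biological replicates and corrected by the unselected control CPM. Molecule = full bridge RNA written as DNA: LTG = specificity nt 1-9, RTG = reverse complement of specificity nt 8-11, in the WT scaffold.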

Sequence | recombinant barcode read abundance (log10)
AAAATACCTTGGGTTCTAACCTGTTGCGG (site AAAATACCTCC) | 1.68
AAAATACCTTGGGTTCTAACCTGTTGCGG (site CAAAGACCTCC) | 0.12
AAAATATCTTGGGTTCTAACCTGTTGCCT (site AAAATATCTAG) | 0.438
AAAATATCTTGGGTTCTAACCTGTTGCCT (site TCGTACCCTTT) | 0.0268
AAAATCTCTTGGGTTCTAACCTGTTGCCT (site AAAATCTCTAG) | 0.708
AAAATCTCTTGGGTTCTAACCTGTTGCCT (site AAACTCGCTAG) | 0.113
AAACTAGCTTGGGTTCTAACCTGTTGCGG (site AAACTAGCTCC) | 2.27
AAACTAGCTTGGGTTCTAACCTGTTGCGG (site CGTGCGCCTAG) | 0.288
AAACTCGCTTGGGTTCTAACCTGTTGCCT (site AAAATCTCTAG) | 0.322
AAACTCGCTTGGGTTCTAACCTGTTGCCT (site AAACTCGCTAG) | 1.8
AAATGGGCTTGGGTTCTAACCTGTTGCGG (site AAATGGGCTCC) | 2.5
AAATGGGCTTGGGTTCTAACCTGTTGCGG (site AGATGAGCTCC) | 0.166
AACAAGACTTGGGTTCTAACCTGTTGCCT (site AACAAGACTAG) | 1.29
AACAAGACTTGGGTTCTAACCTGTTGCCT (site GTACGACCTGT) | 0.274
AACAATACTTGGGTTCTAACCTGTTGCCT (site AACAATACTAG) | 0.438
AACAATACTTGGGTTCTAACCTGTTGCCT (site CTGTGAGCTCT) | 0.0738

Sequence | recombinant barcode read abundance (log10)
AACACGACTTGGGTTCTAACCTGTTGCCT (site AACACGACTAG) | 0.711
AACACGACTTGGGTTCTAACCTGTTGCCT (site GACAGGACTAG) | 0.165
AACACTGCTTGGGTTCTAACCTGTTGCCT (site AACAATGCTAG) | 0.0705
AACACTGCTTGGGTTCTAACCTGTTGCCT (site AACACTGCTAG) | 1.09
AACACTGCTTGGGTTCTAACCTGTTGCCT (site AACAGTGCTAG) | 0
AACACTGCTTGGGTTCTAACCTGTTGCCT (site AACATTGCTAG) | 0.0625
AACAGTACTTGGGTTCTAACCTGTTGCCT (site AACAGTACTAG) | 0.845
AACAGTACTTGGGTTCTAACCTGTTGCCT (site CACAGTACTAG) | 0.406
AACAGTACTTGGGTTCTAACCTGTTGCCT (site GACAGTACTAG) | 0.129
AACAGTACTTGGGTTCTAACCTGTTGCCT (site TACAGTACTAG) | 0.17
AACATAACTTGGGTTCTAACCTGTTGCGT (site AACATAACTAC) | 1.34
AACATAACTTGGGTTCTAACCTGTTGCGT (site TGTTGTCCTCA) | 0.0331
AACCCTACTTGGGTTCTAACCTGTTGCCT (site AACCCTACTAG) | 0.929
AACCCTACTTGGGTTCTAACCTGTTGCCT (site CACCCTACTAG) | 0.328
AACCCTACTTGGGTTCTAACCTGTTGCCT (site GACCCTACTAG) | 0.0455
AACCCTACTTGGGTTCTAACCTGTTGCCT (site TACCCTACTAG) | 0.193
